The source of these data is patent US8703727B2, “Nanotechnology formulation of poorly soluble compounds” (Aphios Corporation, priority 2010, dated 2014).

≈ marks a conversion by molar mass, not a printed value. Read-outs that look alike come from different tables or passages of the source. A value given as a limit tells only on which side of the number the result lay.

A short description of series [1]: Preliminary solubility experiments in methanol. It is filed as physicochemical. Here is the method: Samples were weighed into 20-mL scintillation vials and 10 mL of methanol pipetted into each vial. […] An additional 10 mL of methanol was added to each of these vials. Now sample 3 dissolved completely, but particles still remained in sample 5. An additional 20 mL of methanol was added to sample 5, but on sonication, the small quantity of particles still remained.

The nature of series [2]: HPLC of old standard solutions stored at room temperature. It is filed as physicochemical.
The nature of series [3]: Solubility of S4 and S5 in methanol and ethanol (saturated solution, HPLC). Conditions: 25° C.; for solubility at 5 min: organic solvent or mixture, thermodynamic from solid. It is filed as physicochemical. How it is done: HPLC Method • Column: Phenomenex Luna C18(2), 15-cm×4.6 mm. • Buffer Concentrate (BC): 100 mL Et3N×80 mL 85% H3PO4 to 1000 mL with water. • Mobile Phase B=250 mL ACN+10 mL of BC to 1000 mL with water. • Mobile Phase C=100% ACN • Isocratic Mixture: 60% Phase B and 40% Phase C. • Alternatively, use 55% Acetonitrile with 3-mL Buffer Concentrate/1000 mL • Flow=1.5 mL/min Temperature=30° C. Wavelength=330 nm Injection=20 μL
Procedure for Formation of a Saturated Solution • 1. Weigh in duplicate approximately 100 milligrams of each standard into 1.5 mL mini-centrifuge tubes. • 2. Add 1.00 mL of Methanol to a S4 tube and 1.00 mL of Ethanol to the other S4 tube. Add 1.00 mL of Methanol to a S5 tube and 1.00 mL of Ethanol to the other S5 tube. • 3. Shake all four tubes for 5 minutes at room temperature (25° C.). • 4. Centrifuge at 6000 rpm for 10 minutes. The supernatant should be a saturated solution. • 5. Assay the supernatants by HPLC. Use a 20/1000 dilution in methanol. The target absorbance is 0.40 AU. A reasonable absorbance range is 0.10 to 1.20. If the absorbance that is found is outside of this range, dilute appropriately to bring the absorbance close to 0.40.

The nature of series [4]: HPLC analysis of 0.45 micron filter filtrate of BPN-20 in 1% PVA. It is filed as physicochemical. Here is the method: Procedure: • 1. Write A, B, C, and D on each of four 0.45 micron 47 mm Nylon 66 filters with a soft pencil. • 2. Weigh each of the filters. • 3. Draw Methanol through Filter A and set on a paper towel to dry. • 4. Weigh about 10 mg of aminoflavone onto Filter B and get an accurate weight. • 5. Draw 100 mL of Methanol through Filter B and bring to 100 mL in a 100 mL vol flask • 6. Set Filter B aside to dry on a paper towel. • 7. Draw 20 mL of 1% PVA through Filter C and set on a paper towel to dry. • Save the Filtrate for HPLC Assay • 8. Draw 20 mL of BPN-20 yellow ppt through Filter D and set on a paper towel to dry. • Save the Filtrate for HPLC Assay • 9. Place all four filters in the vacuum oven for 1 hour at 60 C. Then weigh the filters. • 10. Draw 100 mL of Methanol through Filters C and D. Bring to 100 mL with Methanol. • 11. Dry, vacuum oven, and get an accurate weight on filters C and D.

A short description of series [5]: HPLC analysis for degradation after supercritical fluid particle size reduction. Format: physicochemical. Particulars: nitrogen 3,000 psig, 60 minutes, rapid depressurization. Here is the method:
Three nanoparticles experiments were conducted—two with surrogate compounds and one with aminoflavone prodrug (Sample 5). In general, the poorly water-soluble anticancer compound was first saturated with water by placement in the vapor generated by a 39° C. temperature water bath for 60 minutes. The water-saturated sample was then frozen in a −80° C. freezer for 60 minutes. The frozen particles were then placed in the chamber of the nanoparticles apparatus (FIG. 2) and contacted with nitrogen at 3,000 psig for 60 minutes to ensure maximum saturation of the hydrophobic anticancer compound by the SFS. The materials were then rapidly depressurized, discharging the chamber contents into a collection container. The experiments were conducted following Standard Operating Procedure SOP #APH-S0603 and Drawing #9706-001 Rev 2 in Appendix C.
Three samples in aluminum weigh boats with contents weight of 0.4 to 0.5 mg was provided. To obtain the assay solution, each boat was placed in a sonicator bath filled to a height of 3 mm with water. Ten milliliters of methanol was pipetted into the boat and the sonicator was turned on for 20 seconds. The yellow residue in the boat dissolved completely in less than 5 seconds. After sonication, the sample was drawn back into the 10 mL pipette and transferred to a 20 mL scintillation vial to await HPLC assay. […]

For series [6] the following is noted: cited from earlier work.
The nature of series [7]: Solubility of aminoflavone in Freon-22 / ethanol (BPN-06, BPN-07, BPN-08). Format: physicochemical. Particulars: 40 °C, organic solvent or mixture, thermodynamic from solid. Here is the method: Three supercritical, critical or near critical fluid solubility experiments were conducted on the aminoflavone prodrug (NSC 686288). The experiments were conducted with 100% (neat) Freon-22 at 3,000 psig (BPN-06), and 40° C., 90% Freon-22/10% ethanol at 3,000 psig and 40° C. (BPN-07) and 80% Freon-22/20% ethanol at 3,000 psig and 40° C. (BPN-08). These supercritical, critical or near critical fluid and conditions were selected on the basis of previous experience.
A 5.0 mL sample loop was utilized and each collection vial contained 5.0 ml of the same liquid as the sample loop rinse. Methanol was used as the collection fluid and sample rinse in BPN-06; ethanol was utilized as the collection fluid and sample rinse in BPN-07 and BPN-08. Samples were collected after circulation for 60, 75, 90, 105 and 120 minutes; the sample loop was then flushed of CO2 (except BPN-06). The fractions were then analyzed by HPLC. Each solubility data point is the average of 5 measurements.

For series [8] the following is noted: molar-equivalent basis; cited from earlier work.
Series [9] is described as follows: Solubility of aminoflavone in DI water and 1% PVA (HPLC). It is filed as physicochemical. Particulars: for solubility at 5 min: thermodynamic from solid. How it is done:
Procedure: • 1. Weigh 5-10 mg of Aminoflavone into two 20 mL scintillation vials. • 2. Pipette 10 mL of water into Vial A and 10 mL of 1% PVA into Vial B. • 3. Shake the vials gently for about 5 minutes. Then let stand for 30 minutes. • 4. Carefully withdraw 0.9 mL from each vial for HPLC Analysis • 5. Shake the samples again and transfer to 50 mL Centrifuge tubes. • 6. Centrifuge for 20 minutes at 2500 rpm • 7. Again carefully withdraw 0.9 mL from each for HPLC Analysis.
Shaking the Aminoflavone in either water or 1% Aqueous PVA results in a dispersion of small particles that are difficult to see. They are suspended in the solution. HPLC duplication will be very poor since the “solution” is not uniform suspension of different size particles.

Usually solubility stands for how much of the substance goes into solution per volume. One may read the aqueous solubility as how much of the substance goes into solution per volume.

`CC1=C(/C=C/C(C)=C/C=C/C(C)=C/C(=O)Nc2ccc(O)cc2)C(C)(C)CCC1` [Sample 2, Fenretinide (4HPR)]: the “S = mg/100 mL (preliminary solubility in methanol)” value (“S = mg/100 mL” below) in [1] is over 163 mg/100 mL. The “decomposition of old standard solution” value in series [2] (methanol solution stored at room temperature on the laboratory bench) is listed as “showed decomposition products”.
As to `CCCCCCCCCCCCCCC[C@H](O)[C@@H](N)CO` [Sample 3, Safingol], in series [1], the “S = mg/100 mL” value was over 87 mg/100 mL.
Consider `C=CCNC1=C2C[C@@H](C)C[C@H](OC)[C@H](O)[C@@H](C)/C=C(\C)[C@H](OC(N)=O)[C@@H](OC)/C=C\C=C(/C)C(=O)NC(=CC1=O)C2=O` [Sample 4, 17-Allylamino Demethoxygeldanamycin (17-AAG)], for which the “S = mg/100 mL” value in series [1] is over 220 mg/100 mL. In series [3] (Ethanol), the “Solubility (mg/100 mL)” value stood at 1478 mg/100 mL and the solubility at 5 min came to 1480 µg/mL (≈ 2520 µM). Besides, in [3] (Methanol), the “Solubility (mg/100 mL)” value is recorded as 4260 mg/100 mL and the solubility at 5 min came to 4260 µg/mL (≈ 7270 µM). Besides, the “decomposition of old standard solution” value in [2] (methanol solution exposed to room light and temperature for several weeks) is on record as “only tiny decomposition peaks”.
As to `Cc1c(F)c(N)c2c(=O)cc(-c3ccc(N)c(F)c3)oc2c1F` [Sample 5, Aminoflavone], the “solubility in 1% PVA” value in [4] is listed as “essentially insoluble”. The “product degradation of treated materials versus untreated controls (HPLC)” value in series [5] is “did not indicate any product degradation”. The “solubility in DMSO” value in series [6] (DMSO) is “readily soluble”. The solubility was 0.126 to 0.188 µg/mL in [6] (pH 4 and pH 7); 65 µg/mL (≈ 203 µM) in [7] (BPN-06: Freon-22 100 vol %, ethanol 0 vol %, 3,000 psig and 40° C.); 108 µg/mL (≈ 337 µM) in series [7] (BPN-07: Freon-22 90 vol %, ethanol 10 vol %, 3,000 psig and 40° C.); 116 µg/mL (≈ 362 µM) in series [7] (BPN-08: Freon-22 80 vol %, ethanol 20 vol %, 3,000 psig and 40° C.); 480 µg/mL (≈ 1500 µM) in series [1] (organic solvent or mixture, thermodynamic from solid, read-out: measured solubility in methanol). Also, the aqueous solubility in series [6] (pH 10 (glycine buffer)) is 0.65 µg/mL (≈ 2.03 µM). Further, in series [1], the “S = mg/100 mL” value turned out to be 48 mg/100 mL. In addition, the “Solubility (mg/100 mL)” value in series [3] (Ethanol) was determined as 240 mg/100 mL; in series [3] (Methanol), 280 mg/100 mL. Further, the solubility at 5 min in series [3] (Ethanol) amounted to 240 µg/mL (≈ 749 µM); in series [3] (Methanol), 280 µg/mL (≈ 874 µM); in series [9] (1% PVA in water, aqueous with cosolvent or surfactant or cyclodextrin, 1% PVA after centrifugation, average, read-out: average (actual) solubility) it was 0.22 µg/mL (≈ 0.687 µM); in [9] (1% PVA in water, aqueous with cosolvent or surfactant or cyclodextrin, 1% PVA after centrifugation, read-out: Solubility), 0.2 µg/mL (≈ 0.624 µM); in series [9] (1% PVA in water, aqueous with cosolvent or surfactant or cyclodextrin, 1% PVA, after shaking, before centrifugation, read-out: Solubility), 14 µg/mL (≈ 43.7 µM); in [9] (1% PVA in water, aqueous with cosolvent or surfactant or cyclodextrin, 1% PVA, before centrifugation, average, read-out: average (apparent) solubility), 12.1 µg/mL (≈ 37.6 µM). The solubility at 5 min was determined as 0.33 µg/mL (≈ 1.03 µM) in [9] (DI water, water, DI water after centrifugation, average, read-out: average solubility); 0.34 µg/mL (≈ 1.06 µM) in [9] (DI water, water, DI water after centrifugation, read-out: Solubility); 7.84 µg/mL (≈ 24.5 µM) in series [9] (DI water, water, DI water, after shaking, before centrifugation, read-out: Solubility); 10.7 µg/mL (≈ 33.3 µM) in [9] (DI water, water, DI water, before centrifugation, average, read-out: average solubility). Moreover, the “toxicity of intravenous treatments versus prodrug NSC 710464D” value in series [8] was “less toxic”. The “average (apparent) solubility” value in series [9] (1% PVA, before centrifugation, average) came out at 12 µg/mL. The average solubility in series [9] (DI water after centrifugation, average) came out at 0.31 µg/mL.
